Here are results for 2 compounds from US12605346B2, “Composition containing curcumin compound, and method for producing same” (THERABIOPHARMA INC., priority 2020, dated 2026).

Each structure is given as a SMILES string.

For data set [1] the following is noted: normal conditions (temperature 20° C. to 35° C., humidity 40% to 70%) till 6 months; cited from earlier work.
The nature of data set [2]: Plasma curcumin concentration (AUC and Cmax) after administration to rats. The class given is in vivo.
Procedure: The plasma curcumin concentration was measured by the following method using heparin plasma obtained by collecting about 0.2 mL of blood from the jugular vein of test animals (rats) without anesthesia at 0.25 hours, 0.5 hours, 1 hour, 2 hours, 4 hours, and/or 6 hours after start of administration.
To 20 μL of the collected plasma, 100 μL of 0.1 M acetate buffer (pH 5.0) and 10 μL of β-glucuronidase solution (about 68,000 units/mL) were added. The mixture was kept at 37° C. for 1 hour. Subsequently, 10 μL of 50% (v/v) methanol containing 20 ng/mL of Mepronil, an internal standard, and 0.5 mL of chloroform were added. The mixture was stirred with a vortex mixer for 1 minute and then mixed with an ultrasonic generator for 15 minutes to perform an extraction process. The extraction process liquid was separated into a chloroform layer and an aqueous layer by centrifugation (13,000×g, 5 min, room temperature). The separated aqueous layer was further subjected to an extraction process in which extraction was performed by adding chloroform in the same manner as described above. Next, the chloroform layer was collected and dried to solid by distilling the solvent off using a vacuum centrifugal concentrator, and 100 μL of 50% (v/v) methanol was added thereto, followed by centrifugation (13,000×g, 5 min, room temperature). The supernatant was then collected.
The plasma curcumin concentration was measured by analyzing 2 μL of the prepared supernatant using LC-MS/MS (available from Bruker). […]
The calibration curve used to quantitatively determine the curcumin content in the sample was obtained by performing measurement under the same conditions as described above using various standard solutions (curcumin concentration: 0.9 to 225 ng/mL) prepared by adding 10 μL of a 50% ethanol solution containing 20 ng/mL of Mepronil to 90 μL of a 50% (v/v) methanol solution (curcumin standard solution) containing 1.0, 2.0, 3.9, 7.8, 15.6, 31.3, 62.5, 125, or 250 ng/mL of curcumin.

Take `COc1cc(/C=C/C(=O)/C=C(O)/C=C/c2ccc(O)c(OC)c2)ccc1O` [amorphous curcumin, curcumin]: the “Storage stability of sample stored in a container” value in data set [1] is listed as “generally stable”.
In turn, `COc1cc(/C=C/C(=O)/C=C(O)/C=C/c2ccc(O)c(OC)c2)ccc1O` [Comparative Example 2, curcumin] had a Cmax in data set [2] (rat, oral, plasma curcumin after β-glucuronidase treatment) of 85 ng/mL. The same compound returned an AUC in data set [2] (rat, oral, plasma curcumin after β-glucuronidase treatment, 0 to 6 hrs) of 292 ng·h/mL. In addition, the “Cmax relative to Comparative Example 1 (value in parentheses)” value in data set [2] (ratio to commercial curcumin formulation (Comparative Example 1 = 1.0)) came to 0.84 times.
